From US9340590B2 (priority 2011, dated 2016)
Like-named read-outs stand apart in the source and are kept apart here. Positions of bridges follow the written chain, without caps; N, C: chain ends. Residues, ends and D or L forms follow the SMILES beside them.

Tests used:
Experiment in all cases: cell-based
hNav1.3 [1] = target: T1, hNav1.3 (Homo sapiens, UniProt Q9NY46); assay type: cell-based; conditions: for IC50: Nav1.3 Use IC50
hNav1.7 [2] = target: T2, hNav1.7 (Homo sapiens, UniProt Q15858); conditions: Nav1.7 Use IC50
T2 sequence (Q15858 whole entry, looked up): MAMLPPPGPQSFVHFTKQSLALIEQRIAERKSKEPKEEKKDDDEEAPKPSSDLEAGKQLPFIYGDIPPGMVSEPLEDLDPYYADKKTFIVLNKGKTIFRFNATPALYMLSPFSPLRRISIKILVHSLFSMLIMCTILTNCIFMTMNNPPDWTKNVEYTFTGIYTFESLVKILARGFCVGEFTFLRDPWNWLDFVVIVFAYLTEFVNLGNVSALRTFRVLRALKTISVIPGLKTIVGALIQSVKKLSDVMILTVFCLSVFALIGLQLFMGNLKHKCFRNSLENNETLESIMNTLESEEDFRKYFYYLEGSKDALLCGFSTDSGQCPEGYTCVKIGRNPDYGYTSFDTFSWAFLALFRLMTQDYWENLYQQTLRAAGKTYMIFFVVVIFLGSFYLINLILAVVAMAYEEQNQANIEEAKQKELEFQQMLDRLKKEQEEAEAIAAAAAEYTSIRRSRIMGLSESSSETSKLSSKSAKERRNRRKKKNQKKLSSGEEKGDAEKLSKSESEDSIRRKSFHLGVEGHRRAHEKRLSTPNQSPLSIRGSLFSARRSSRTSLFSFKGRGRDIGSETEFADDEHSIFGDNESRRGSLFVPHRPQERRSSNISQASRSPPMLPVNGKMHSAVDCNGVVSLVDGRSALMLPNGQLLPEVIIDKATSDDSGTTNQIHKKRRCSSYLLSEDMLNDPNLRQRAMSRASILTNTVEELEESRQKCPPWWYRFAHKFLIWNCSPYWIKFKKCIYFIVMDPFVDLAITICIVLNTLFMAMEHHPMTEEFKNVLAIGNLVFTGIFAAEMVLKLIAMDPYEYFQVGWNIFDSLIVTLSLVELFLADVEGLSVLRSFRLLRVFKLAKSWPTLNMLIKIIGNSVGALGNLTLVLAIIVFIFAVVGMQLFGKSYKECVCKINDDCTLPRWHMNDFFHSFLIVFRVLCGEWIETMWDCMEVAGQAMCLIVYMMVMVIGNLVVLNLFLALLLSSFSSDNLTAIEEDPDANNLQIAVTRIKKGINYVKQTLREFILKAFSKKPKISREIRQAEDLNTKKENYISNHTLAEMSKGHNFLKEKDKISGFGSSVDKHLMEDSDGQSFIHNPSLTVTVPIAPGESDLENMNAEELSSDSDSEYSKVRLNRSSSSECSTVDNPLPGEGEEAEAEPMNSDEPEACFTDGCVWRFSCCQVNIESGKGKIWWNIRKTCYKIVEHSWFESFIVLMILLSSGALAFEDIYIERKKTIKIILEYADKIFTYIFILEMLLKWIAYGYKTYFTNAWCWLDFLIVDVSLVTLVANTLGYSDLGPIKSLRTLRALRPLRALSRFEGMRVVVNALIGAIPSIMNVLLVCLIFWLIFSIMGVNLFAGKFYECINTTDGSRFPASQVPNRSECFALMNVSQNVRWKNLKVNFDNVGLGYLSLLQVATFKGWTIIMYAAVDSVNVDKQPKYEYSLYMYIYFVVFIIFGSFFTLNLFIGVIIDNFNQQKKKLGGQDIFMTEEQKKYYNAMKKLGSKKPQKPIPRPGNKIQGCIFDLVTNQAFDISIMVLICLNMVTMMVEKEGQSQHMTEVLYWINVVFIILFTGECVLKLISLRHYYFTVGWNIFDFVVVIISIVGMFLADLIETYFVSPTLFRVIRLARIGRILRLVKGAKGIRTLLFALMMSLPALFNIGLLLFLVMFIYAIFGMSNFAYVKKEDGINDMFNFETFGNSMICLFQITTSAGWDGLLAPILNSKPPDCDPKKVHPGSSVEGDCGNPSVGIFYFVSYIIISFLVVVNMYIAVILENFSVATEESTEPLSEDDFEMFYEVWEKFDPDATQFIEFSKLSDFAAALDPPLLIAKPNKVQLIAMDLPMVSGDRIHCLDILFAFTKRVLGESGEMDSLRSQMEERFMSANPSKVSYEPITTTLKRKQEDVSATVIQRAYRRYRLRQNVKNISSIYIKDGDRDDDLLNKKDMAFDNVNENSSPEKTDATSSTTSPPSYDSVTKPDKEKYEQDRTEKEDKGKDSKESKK

hNav1.3 [3] = target: T1, hNav1.3; conditions: IonWorks Quattro; clamped to −110 mV, depolarized to −10 mV, 5 min after compound; n=2; read-out: IWQ Use Nav1.3
hNav1.5 = hNav1.5 (Homo sapiens, UniProt Q14524); conditions: IonWorks Quattro; clamped to −110 mV, depolarized to −10 mV, 5 min after compound; n=2; read-out: IWQ Use Nav1.5
hNav1.7 [4] = target: T2, hNav1.7; assay type: cell-based; conditions: IonWorks Quattro; clamped to −110 mV, depolarized to −10 mV, 5 min after compound; n=2; read-out: IWQ Use Nav1.7

T1 sequence (Q9NY46 whole entry, looked up): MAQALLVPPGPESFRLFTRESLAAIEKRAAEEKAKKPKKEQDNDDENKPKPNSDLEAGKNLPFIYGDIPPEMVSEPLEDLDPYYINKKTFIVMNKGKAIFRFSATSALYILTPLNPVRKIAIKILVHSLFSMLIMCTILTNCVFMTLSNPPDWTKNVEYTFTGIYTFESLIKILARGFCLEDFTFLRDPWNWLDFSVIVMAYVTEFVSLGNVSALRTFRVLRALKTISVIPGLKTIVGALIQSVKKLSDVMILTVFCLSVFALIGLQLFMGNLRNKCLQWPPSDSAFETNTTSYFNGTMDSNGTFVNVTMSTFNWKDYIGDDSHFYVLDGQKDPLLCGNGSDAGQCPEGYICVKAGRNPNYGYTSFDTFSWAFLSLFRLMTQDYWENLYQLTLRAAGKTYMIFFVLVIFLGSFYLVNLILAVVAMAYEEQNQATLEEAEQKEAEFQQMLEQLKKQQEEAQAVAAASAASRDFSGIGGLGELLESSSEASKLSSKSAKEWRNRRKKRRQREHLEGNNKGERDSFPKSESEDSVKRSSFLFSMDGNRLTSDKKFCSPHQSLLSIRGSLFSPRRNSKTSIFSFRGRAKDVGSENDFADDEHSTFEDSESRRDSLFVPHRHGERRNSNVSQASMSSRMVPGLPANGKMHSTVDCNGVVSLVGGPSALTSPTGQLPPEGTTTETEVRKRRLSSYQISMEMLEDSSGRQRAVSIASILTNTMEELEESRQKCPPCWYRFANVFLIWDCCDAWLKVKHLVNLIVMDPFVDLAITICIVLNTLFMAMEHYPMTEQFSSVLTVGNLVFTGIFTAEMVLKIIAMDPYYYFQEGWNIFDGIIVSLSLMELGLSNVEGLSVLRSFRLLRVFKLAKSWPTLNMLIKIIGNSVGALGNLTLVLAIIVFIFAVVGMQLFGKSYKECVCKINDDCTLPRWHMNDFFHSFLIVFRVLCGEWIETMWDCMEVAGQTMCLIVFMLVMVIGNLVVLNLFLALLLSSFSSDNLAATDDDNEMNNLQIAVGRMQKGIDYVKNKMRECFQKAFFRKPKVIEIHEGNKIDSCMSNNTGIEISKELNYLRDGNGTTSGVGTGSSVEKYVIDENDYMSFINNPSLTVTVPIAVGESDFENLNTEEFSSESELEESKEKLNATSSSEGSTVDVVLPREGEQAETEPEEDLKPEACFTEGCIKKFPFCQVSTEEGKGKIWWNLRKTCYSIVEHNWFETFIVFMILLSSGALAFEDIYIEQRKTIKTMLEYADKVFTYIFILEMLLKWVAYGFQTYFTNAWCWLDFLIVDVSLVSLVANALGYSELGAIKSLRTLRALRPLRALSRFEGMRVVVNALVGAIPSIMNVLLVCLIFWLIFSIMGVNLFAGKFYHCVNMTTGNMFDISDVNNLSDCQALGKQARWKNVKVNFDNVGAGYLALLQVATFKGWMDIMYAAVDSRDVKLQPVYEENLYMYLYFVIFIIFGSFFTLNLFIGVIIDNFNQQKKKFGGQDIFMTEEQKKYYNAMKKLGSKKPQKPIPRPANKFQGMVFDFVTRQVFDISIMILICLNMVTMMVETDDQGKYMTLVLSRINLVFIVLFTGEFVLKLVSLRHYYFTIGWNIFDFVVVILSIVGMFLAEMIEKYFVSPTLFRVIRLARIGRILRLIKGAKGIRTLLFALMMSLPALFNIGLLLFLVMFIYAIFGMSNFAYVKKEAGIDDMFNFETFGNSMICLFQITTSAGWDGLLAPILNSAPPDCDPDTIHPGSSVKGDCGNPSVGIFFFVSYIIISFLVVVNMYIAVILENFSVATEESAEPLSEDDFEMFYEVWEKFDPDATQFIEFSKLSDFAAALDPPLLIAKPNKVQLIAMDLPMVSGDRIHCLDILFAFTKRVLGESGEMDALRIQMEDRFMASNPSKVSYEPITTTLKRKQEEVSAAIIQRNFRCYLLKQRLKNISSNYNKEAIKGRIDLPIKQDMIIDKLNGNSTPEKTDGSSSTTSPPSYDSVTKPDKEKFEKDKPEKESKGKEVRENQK

| SMILES | IC50 (hNav1.3 [1]) [nM] | IC50 (hNav1.7 [2]) [nM] | IC50 (hNav1.3 [3]) [nM] | IC50 (hNav1.5) [nM] | IC50 (hNav1.7 [4]) [nM] | potency against NaV1.3, in words (hNav1.3 [1]) |
| --- | --- | --- | --- | --- | --- | --- |
| CC[C@H](C)[C@@H]1NC(=O)[C@@H]2CSSC[C@@H]3NC(=O)[C@H](C(C)C)NC(=O)[C@H](CC(C)C)NC(=O)[C@H](CC(N)=O)NC(=O)[C@@H]4CCCN4C(=O)[C@H](CCC(=O)O)NC(=O)[C@H](CSSC[C@H](NC(=O)[C@@H](N)CC(=O)O)C(=O)N[C@@H](CC(C)C)C(=O)NCC(=O)N[C@@H](Cc4ccccc4)C(=O)N[C@@H](CCSC)C(=O)N[C@@H](CCCNC(=N)N)C(=O)N[C@@H](CCCCN)C(=O)N2)NC(=O)[C@H](CSSC[C@@H](C(=O)N[C@@H](CCCCN)C(=O)N[C@@H](Cc2ccc(O)cc2)C(=O)N[C@H](C(=O)N[C@@H](Cc2ccccc2)C(N)=O)C(C)C)NC(=O)[C@H](Cc2c[nH]c4ccccc24)NC(=O)[C@H](CCCCN)NC(=O)[C@H](Cc2cnc[nH]2)NC(=O)[C@H]([C@@H](C)O)NC(=O)[C@H](CCCNC(=N)N)NC(=O)[C@H](CO)NC3=O)NC(=O)[C@H](CCCCN)NC(=O)[C@H](CC(=O)O)NC(=O)[C@H](CC(N)=O)NC(=O)[C@H](CC(=O)O)NC(=O)[C@@H]2CCCN2C1=O [[Glu18]GpTx-1(1-34)] (H-DCLGFMRKCIPDNDKCCEPNLVCSRTHKWCKYVF-NH2; disulfide 2-17, 9-23, 16-30) | 98 | 18 | – | – | – | – |
| CC[C@H](C)[C@@H]1NC(=O)[C@@H]2CSSC[C@@H]3NC(=O)[C@H](C(C)C)NC(=O)[C@H](CC(C)C)NC(=O)[C@H](CC(N)=O)NC(=O)[C@@H]4CCCN4C(=O)[C@H](CCCNC(=N)N)NC(=O)[C@H](CSSC[C@H](NC(=O)[C@@H](N)CC(=O)O)C(=O)N[C@@H](CC(C)C)C(=O)NCC(=O)N[C@@H](C)C(=O)N[C@@H](CCSC)C(=O)N[C@@H](CCCNC(=N)N)C(=O)N[C@@H](CCCCN)C(=O)N2)NC(=O)[C@H](CSSC[C@@H](C(=O)N[C@@H](CCCCN)C(=O)N[C@@H](Cc2ccc(O)cc2)C(=O)N[C@H](C(=O)N[C@@H](Cc2ccccc2)C(N)=O)C(C)C)NC(=O)[C@H](Cc2c[nH]c4ccccc24)NC(=O)[C@H](CCCCN)NC(=O)[C@H](Cc2cnc[nH]2)NC(=O)[C@H](CC(C)C)NC(=O)[C@H](CCCNC(=N)N)NC(=O)[C@H](CO)NC3=O)NC(=O)[C@H](CCCCN)NC(=O)[C@H](CC(=O)O)NC(=O)[C@H](CC(N)=O)NC(=O)[C@H](CC(=O)O)NC(=O)[C@@H]2CCCN2C1=O [[Ala5;Leu26]GpTx-1(1-34)] (H-DCLGAMRKCIPDNDKCCRPNLVCSRLHKWCKYVF-NH2; disulfide 2-17, 9-23, 16-30) | 470 | 49 | – | – | – | – |
| CC[C@H](C)[C@@H]1NC(=O)[C@@H]2CSSC[C@@H]3NC(=O)[C@H](C(C)C)NC(=O)[C@H](CC(C)C)NC(=O)[C@H](CC(N)=O)NC(=O)[C@@H]4CCCN4C(=O)[C@H](CCCNC(=N)N)NC(=O)[C@H](CSSC[C@H](NC(=O)[C@@H](N)CC(=O)O)C(=O)N[C@@H](CC(C)C)C(=O)NCC(=O)N[C@@H](Cc4ccccc4)C(=O)N[C@@H](CCSC)C(=O)N[C@@H](CCCNC(=N)N)C(=O)N[C@@H](CCCCN)C(=O)N2)NC(=O)[C@H](CSSC[C@@H](C(=O)N[C@@H](CCCCN)C(=O)N[C@@H](Cc2ccc(O)cc2)C(=O)N[C@H](C(=O)N[C@@H](Cc2ccccc2)C(N)=O)C(C)C)NC(=O)[C@H](Cc2c[nH]c4ccccc24)NC(=O)[C@H](CCCCN)NC(=O)[C@H](Cc2cnc[nH]2)NC(=O)[C@H](CCC(=O)O)NC(=O)[C@H](CCCNC(=N)N)NC(=O)[C@H](CO)NC3=O)NC(=O)[C@H](CCCCN)NC(=O)[C@H](CC(=O)O)NC(=O)[C@H](CC(N)=O)NC(=O)[C@H](CC(=O)O)NC(=O)[C@@H]2CCCN2C1=O [[Glu26]GpTx-1(1-34)] (H-DCLGFMRKCIPDNDKCCRPNLVCSREHKWCKYVF-NH2; disulfide 2-17, 9-23, 16-30) | 216 | 52 | – | – | – | – |
| CC[C@H](C)[C@@H]1NC(=O)[C@@H]2CSSC[C@@H]3NC(=O)[C@H](C(C)C)NC(=O)[C@H](CC(C)C)NC(=O)[C@H](CC(N)=O)NC(=O)[C@@H]4CCCN4C(=O)[C@H](CCCNC(=N)N)NC(=O)[C@H](CSSC[C@H](NC(=O)[C@@H](N)CC(=O)O)C(=O)N[C@@H](CC(C)C)C(=O)NCC(=O)N[C@@H](Cc4ccccc4)C(=O)N[C@@H](CC(C)C)C(=O)N[C@@H](CCCNC(=N)N)C(=O)N[C@@H](CCCCN)C(=O)N2)NC(=O)[C@H](CSSC[C@@H](C(=O)N[C@@H](CCCCN)C(=O)N[C@@H](Cc2ccc(O)cc2)C(=O)N[C@H](C(=O)N[C@@H](Cc2ccccc2)C(N)=O)C(C)C)NC(=O)[C@H](Cc2c[nH]c4ccccc24)NC(=O)[C@H](CCCCN)NC(=O)[C@H](Cc2cnc[nH]2)NC(=O)[C@H]([C@@H](C)O)NC(=O)[C@H](CCCNC(=N)N)NC(=O)[C@H](CO)NC3=O)NC(=O)[C@H](CCCCN)NC(=O)[C@H](CC(=O)O)NC(=O)[C@H](CC(N)=O)NC(=O)[C@H](CC(=O)O)NC(=O)[C@@H]2CCCN2C1=O [SEQ ID NO: 244] (H-DCLGFLRKCIPDNDKCCRPNLVCSRTHKWCKYVF-NH2; disulfide 2-17, 9-23, 16-30) | 18 | 26 | 40 | 6420 | 60 | – |
| CC[C@H](C)[C@@H]1NC(=O)[C@@H]2CSSC[C@@H]3NC(=O)[C@H](C(C)C)NC(=O)[C@H](CC(C)C)NC(=O)[C@H](CC(N)=O)NC(=O)[C@@H]4CCCN4C(=O)[C@H](CCCNC(=N)N)NC(=O)[C@H](CSSC[C@H](NC(=O)[C@@H](N)CC(=O)O)C(=O)N[C@@H](CC(C)C)C(=O)NCC(=O)N[C@@H](Cc4ccc(I)cc4)C(=O)N[C@@H](CCSC)C(=O)N[C@@H](CCCNC(=N)N)C(=O)N[C@@H](CCCCN)C(=O)N2)NC(=O)[C@H](CSSC[C@@H](C(=O)N[C@@H](CCCCN)C(=O)N[C@@H](Cc2ccc(O)cc2)C(=O)N[C@H](C(=O)N[C@@H](Cc2ccccc2)C(N)=O)C(C)C)NC(=O)[C@H](Cc2c[nH]c4ccccc24)NC(=O)[C@H](CCCCN)NC(=O)[C@H](Cc2c[nH]cn2)NC(=O)[C@H]([C@@H](C)O)NC(=O)[C@H](CCCNC(=N)N)NC(=O)[C@H](CO)NC3=O)NC(=O)[C@H](CCCCN)NC(=O)[C@H](CC(=O)O)NC(=O)[C@H](CC(N)=O)NC(=O)[C@H](CC(=O)O)NC(=O)[C@@H]2CCCN2C1=O [SEQ ID NO: 247] | 90 | 247 | 20 | 6160 | 160 | increased potency |
| CC[C@H](C)[C@@H]1NC(=O)[C@@H]2CSSC[C@@H]3NC(=O)[C@H](C(C)C)NC(=O)[C@H](CC(C)C)NC(=O)[C@H](CC(N)=O)NC(=O)[C@@H]4CCCN4C(=O)[C@H](CCCNC(=N)N)NC(=O)[C@H](CSSC[C@H](NC(=O)[C@@H](N)CC(=O)O)C(=O)N[C@@H](CC(C)C)C(=O)NCC(=O)N[C@@H](C)C(=O)N[C@@H](Cc4c[nH]c5ccccc45)C(=O)N[C@@H](CCCNC(=N)N)C(=O)N[C@@H](CCCCN)C(=O)N2)NC(=O)[C@H](CSSC[C@@H](C(=O)N[C@@H](CCCCN)C(=O)N[C@@H](Cc2ccc(O)cc2)C(=O)N[C@H](C(=O)N[C@@H](Cc2ccccc2)C(N)=O)C(C)C)NC(=O)[C@H](Cc2c[nH]c4ccccc24)NC(=O)[C@H](CCCCN)NC(=O)[C@H](Cc2cnc[nH]2)NC(=O)[C@H]([C@@H](C)O)NC(=O)[C@H](CCCNC(=N)N)NC(=O)[C@H](CO)NC3=O)NC(=O)[C@H](CCCCN)NC(=O)[C@H](CC(=O)O)NC(=O)[C@H](CC(N)=O)NC(=O)[C@H](CC(=O)O)NC(=O)[C@@H]2CCCN2C1=O [[Ala5;Trp6]GpTx-1(1-34)] (H-DCLGAWRKCIPDNDKCCRPNLVCSRTHKWCKYVF-NH2; disulfide 2-17, 9-23, 16-30) | 81 | 57 | – | – | – | – |
| CC[C@H](C)[C@@H]1NC(=O)[C@@H]2CSSC[C@@H]3NC(=O)[C@H](C(C)C)NC(=O)[C@H](CC(C)C)NC(=O)[C@H](CC(N)=O)NC(=O)[C@@H]4CCCN4C(=O)[C@H](CCCNC(=N)N)NC(=O)[C@H](CSSC[C@H](NC(=O)[C@@H](N)CC(=O)O)C(=O)N[C@@H](CC(C)C)C(=O)NCC(=O)N[C@@H](C)C(=O)N[C@@H](Cc4ccccc4)C(=O)N[C@@H](CCCNC(=N)N)C(=O)N[C@@H](CCCCN)C(=O)N2)NC(=O)[C@H](CSSC[C@@H](C(=O)N[C@@H](CCCCN)C(=O)N[C@@H](Cc2ccc(O)cc2)C(=O)N[C@H](C(=O)N[C@@H](Cc2ccccc2)C(N)=O)C(C)C)NC(=O)[C@H](Cc2c[nH]c4ccccc24)NC(=O)[C@H](CCCNC(=N)N)NC(=O)[C@H](Cc2cnc[nH]2)NC(=O)[C@H](CC(C)C)NC(=O)[C@H](CCCNC(=N)N)NC(=O)[C@H](CO)NC3=O)NC(=O)[C@H](CCCCN)NC(=O)[C@H](CC(=O)O)NC(=O)[C@H](CC(N)=O)NC(=O)[C@H](CC(=O)O)NC(=O)[C@@H]2CCCN2C1=O [[Ala5;Phe6;Leu26;Arg28]GpTx-1(1-34)] (H-DCLGAFRKCIPDNDKCCRPNLVCSRLHRWCKYVF-NH2; disulfide 2-17, 9-23, 16-30) | 8 | 2 | – | – | – | – |
